Results reported in patent publication US7928139B2 (Amgen Inc., priority 2006, dated 2011).

Molecular target: HIF PHD2 (Homo sapiens, UniProt Q9GZT9)
Test: PHD2 inhibition assay (TR-FRET, VCB-Eu detection of hydroxylated P564-HIF1α peptide)
Type: biochemical
Conditions: 2 nM PHD2, 100 nM P564-HIF1α peptide, 0.25 μM 2-oxoglutarate, 100 μM FeCl2, 2 mM ascorbic acid
Procedure: Inhibition of HIF PHD2 activity was quantified utilizing the TR-FRET technology. HIF PHD2 catalyzes a hydroxyl modification on the proline residue of the P564-HIF1α peptide substrate (Biotin-DLEMLAPYIPMDDDFQL (SEQ ID NO: 7)) resulting in recognition and binding of the europylated Von Hippel-Lindau protein (pVHL), elongin B and elongin C heterotrimeric (VCB-Eu) complex.
The PHD2 inhibition assay was executed by addition of freshly dissolved FeCl2 to 178.57 μM (100 μM final concentration) in PHD2 Reaction Buffer containing 30 mM MES, pH 6, 10 mM NaCl, 0.25% Brij-35, 0.01% BSA, and 1% DMSO. 28 μL of the iron solution and 2 μL of inhibitor compounds serially diluted in 100% DMSO (5% DMSO final) were added to black polypropylene 96-well microtiter plates. To that, 10 μL of 10 nM PHD2 (2 nM final) was added to all wells of the plate except for the 8 wells of column 12 (LO control), and allowed to incubate at room temperature on the shaker for one hour. Column 6 was the HI control containing PHD2 enzyme and 5% DMSO vehicle, but no inhibitor compound. To initiate the PHD2 enzymatic reaction, 10 μL of a solution containing 500 nM P564-HIF1α peptide (100 nM final), 10 mM ascorbic acid (2 mM final), and 1.25 μM 2-oxoglutarate (α-ketoglutarate; 0.25 μM final) in PHD2 Reaction Buffer was added to all wells of the plate and allowed to incubate on the shaker at room temperature for one hour.
The reaction was terminated by addition of 25 μL TR-FRET Buffer (50 mM TRIS-HCl, pH 9, 100 mM NaCl, 0.05% BSA, and 0.5% Tween-20) containing 150 mM succinate (product inhibitor; 50 mM final), 75 nM streptavidin-APC (25 nM final), and 7.5 nM VCB-Eu (2.5 nM final). The TR-FRET detection reagents were placed on a shaker for 1 hour to reach binding equilibrium before reading on the Discovery platform (PerkinElmer). Europium is excited at 315 nm and phosphoresces at 615 nm with a large Stoke's shift. APC, in turn, emits at 655 nm upon excitation at 615 nm. The TR-FRET signal is measured as the ratio of the APC 655 nm signal divided by the internal europium reference 615 nm emission signal.
The POC (percentage of control) was determined by comparing the signal from hydroxylated peptide substrate in the enzyme reaction containing inhibitor compound with that from PHD2 enzyme with DMSO vehicle alone (HI control), and no enzyme (LO control). POC was calculated using the formula: % control (POC)=(cpd−average LO)/(average HI−average LO)*100. Data (consisting of POC and inhibitor concentration in μM) was fitted to a 4-parameter equation (y=A+((B−A)/(1+((x/C)^D))), where A is the minimum y (POC) value, B is the maximum y (POC), C is the x (cpd concentration) at the point of inflection and D is the slope factor) using a Levenburg-Marquardt non-linear regression algorithm.

Chain of HIF PHD2 (Q9GZT9 whole entry): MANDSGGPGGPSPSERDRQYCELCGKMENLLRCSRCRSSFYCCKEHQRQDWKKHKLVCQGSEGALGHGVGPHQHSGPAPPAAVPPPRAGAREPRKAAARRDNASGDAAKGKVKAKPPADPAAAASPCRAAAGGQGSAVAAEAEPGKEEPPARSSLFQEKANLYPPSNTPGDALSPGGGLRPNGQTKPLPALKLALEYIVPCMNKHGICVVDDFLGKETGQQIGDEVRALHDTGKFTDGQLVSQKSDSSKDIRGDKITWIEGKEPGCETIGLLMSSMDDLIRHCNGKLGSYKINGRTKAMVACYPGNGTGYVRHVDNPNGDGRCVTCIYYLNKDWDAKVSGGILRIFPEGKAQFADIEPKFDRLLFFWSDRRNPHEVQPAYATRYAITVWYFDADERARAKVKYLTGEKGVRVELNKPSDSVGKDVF

| Molecule | IC50 |
| --- | --- |
| C[C@@]1(C#N)C(=O)C(C(=O)CCC(=O)O)=C(O)c2cc(Cl)ccc21 (single isomer, unassigned) [Example 124, (R)-4-(7-chloro-4-cyano-1-hydroxy-4-methyl-3-oxo-3,4-dihydronaphthalen-2-yl)-4-oxobutanoic acid or (S)-4-(7-chloro-4-cyano-1-hydroxy-4-methyl-3-oxo-3,4-dihydronaphthalen-2-yl)-4-oxobutanoic acid] | 1000 to 10000 nM |
| CC[C@]1(C)C(=O)C(C(=O)NCC(=O)O)=C(O)c2cc(Cl)ccc21 [Example 79, N-(((1S)-6-Chloro-4-hydroxy-1-ethyl-1-methyl-2-oxo-naphthalen-3-yl)carbonyl)glycine] | 100 to 500 nM |
| CC1(C)C(=O)C(C(=O)CCC(=O)O)=C(O)c2ccc(F)c(F)c21 [Example 126, 4-(5,6-difluoro-1-hydroxy-4,4-dimethyl-3-oxo-3,4-dihydronaphthalen-2-yl)-4-oxobutanoic acid] | 100 to 500 nM |
| CC1(C)C(=O)C(C(=O)NCC(=O)O)=C(O)c2ccc(OCc3ccccc3)c(F)c21 [Example 20, N-((8-Fluoro-4-hydroxy-1,1-dimethyl-2-oxo-7-((phenylmethyl)oxy)-naphthalen-3-yl)carbonyl)glycine] | 100 to 500 nM |
| C[C@@H](NC(=O)C1=C(O)c2cc(Cl)ccc2C2(CCOCC2)C1=O)C(=O)O [Example 56, N-((6-Chloro-4-hydroxy-2-oxo-2′,3′,5′,6′-tetrahydro-spiro[naphthalene-1,4′-pyran]-3-yl)carbonyl)-D-alanine] | > 10000 nM |
| C[C@H](NC(=O)C1=C(O)c2ccc(Br)cc2C(C)(C)C1=O)C(=O)O [Example 50, N-((7-Bromo-4-hydroxy-1,1-dimethyl-2-oxo-naphthalen-3-yl)carbonyl)-L-alanine] | 100 to 500 nM |
| COc1cccc2c1C(O)=C(C(=O)NCC(=O)O)C(=O)C21CCOCC1 [Example 18, N-((5-Methoxy-4-hydroxy-2-oxo-2′,3′,5′,6′-tetrahydro-spiro[naphthalene-1,4′-pyran]-3-yl)carbonyl)glycine] | < 100 nM |
| CC1(C)C(=O)C(C(=O)NCC(=O)O)=C(O)c2cc(-c3cccnc3)ccc21 [Example 5, N-((4-Hydroxy-1,1-dimethyl-2-oxo-6-(3-pyridinyl)-naphthalen-3-yl)carbonyl)glycine] | < 100 nM |
| O=C(O)CNC(=O)C1=C(O)c2cc(Cl)ccc2C2(CCN(Cc3ccccc3)CC2)C1=O [Example 71, N-((6-Chloro-4-hydroxy-2-oxo-2′,3′,5′,6′-tetrahydro-N-benzyl-spiro[naphthalene-1,4′-piperidine]-3-yl)carbonyl)glycine] | < 100 nM |
| CC1(C)C(=O)C(C(=O)NCC(=O)O)=C(O)c2cc(C#N)ccc21 [Example 42, N-((6-Cyano-4-hydroxy-1,1-dimethyl-2-oxo-naphthalen-3-yl)carbonyl)glycine] | < 100 nM |
| (R)-2-(7-bromo-1- cyano-4-hydroxy-1- methyl-2-oxo-1,2- dihydronaphthalene- 3-carboxamido) acetic acid or (S)-2-(7-bromo-1- cyano-4-hydroxy-1- methyl-2-oxo-1,2- dihydronaphthalene- 3-carboxamido) acetic acid [Example 134] | < 100 nM |
| CC1(C)C(=O)C(C(=O)NCC(=O)O)=C(O)c2c(Cl)cccc21 [Example 82, N-((5-Chloro-4-hydroxy-1,1-dimethyl-2-oxo-naphthalen-3-yl)carbonyl)glycine] | < 100 nM |
| CC1(C#N)C(=O)C(C(=O)NCC(=O)O)=C(O)c2ccc(Br)cc21 (single isomer, unassigned) [Example 139] | < 100 nM |
| COC/C=C/c1ccc2c(c1)C(C)(C)C(=O)C(C(=O)NCC(=O)O)=C2O [Example 98, N-((4-Hydroxy-1,1-dimethyl-7-((1E)-3-(methyloxy)-1-propen-1-yl)-2-oxo-naphthalen-3-yl)carbonyl)glycine] | < 100 nM |
| CC1(C)C(=O)C(C(=O)NCC(=O)O)=C(O)c2ccc(CCc3ccccc3)cc21 [Example 109, 2-(2-Hydroxy-1,1-dimethyl-4-oxo-7-phenethyl-1,4-dihydronaphthalene-3-carboxamido)acetic acid] | < 100 nM |
| O=C(O)CNC(=O)C1=C(O)c2cc(C(F)(F)F)ccc2C2(CCOCC2)C1=O [Example 3, N-((4-Hydroxy-2-oxo-6-(trifluoromethyl)-2′,3′,5′,6′-tetrahydro-2H-spiro[naphthalene-1,4′-pyran]-3-yl)carbonyl)glycine] | < 100 nM |

Other lines, results leading:

| IC50 | Molecule |
| --- | --- |
| < 100 nM | Cc1ccc2c(c1)C(O)=C(C(=O)NCC(=O)O)C(=O)C2(C)C [Example 61, N-((6-Methyl-4-hydroxy-1,1-dimethyl-2-oxo-naphthalen-3-yl)carbonyl)glycine] |
| < 100 nM | O=C(O)CNC(=O)C1=C(O)c2cc(F)c(F)cc2C2(CCOCC2)C1=O [Example 58, N-((6,7-Difluoro-4-hydroxy-2-oxo-2′,3′,5′,6′-tetrahydro-spiro[naphthalene-1,4′-pyran]-3-yl)carbonyl)glycine] |
| < 100 nM | O=C(O)CNC(=O)C1=C(O)c2cc(Cl)ccc2C2(CCN(C(=O)c3ccccc3)CC2)C1=O [Example 91, N-((6-Chloro-4-hydroxy-2-oxo-1′-(phenylcarbonyl)-spiro[naphthalene-1,4′-piperidin]-3-yl)carbonyl)glycine] |
| < 100 nM | O=C(O)CNC(=O)C1=C(O)c2ccc(Cl)cc2C2(CCOCC2)C1=O [Example 46, N-((7-Chloro-4-hydroxy-2-oxo-2′,3′,5′,6′-tetrahydro-spiro[naphthalene-1,4′-pyran]-3-yl)carbonyl)glycine] |
| < 100 nM | CC1(C#N)C(=O)C(C(=O)NCC(=O)O)=C(O)c2ccccc21 (stereo not drawn) [Example 28, N-((1-Cyano-4-hydroxy-1-methyl-2-oxo-naphthalen-3-yl)carbonyl)glycine] |
| < 100 nM | O=C(O)CCC(=O)C1=C(O)c2ccc(Cl)cc2C2(CCOCC2)C1=O [Example 128, 4-(7-chloro-2-hydroxy-4-oxo-2′,3′,5′,6′-tetrahydro-4H-spiro[naphthalene-1,4′-pyran]-3-yl)-4-oxobutanoic acid] |
| < 100 nM | COCCCc1ccc2c(c1)C(C)(C)C(=O)C(C(=O)NCC(=O)O)=C2O [Example 99, N-((4-Hydroxy-1,1-dimethyl-7-(3-(methyloxy)propyl)-2-oxo-naphthalen-3-yl)carbonyl)glycine] |
| < 100 nM | CC1(C#N)C(=O)C(C(=O)NCC(=O)O)=C(O)c2cc(F)c(F)cc21 (stereo not drawn) [Example 133, 2-(1-cyano-6,7-difluoro-4-hydroxy-1-methyl-2-oxo-1,2-dihydronaphthalene-3-carboxamido) acetic acid] |
| < 100 nM | CC1(C)C(=O)C(C(=O)NCC(=O)O)=C(O)c2cc(Br)ccc21 [Example 40, N-((6-Bromo-4-hydroxy-1,1-dimethyl-2-oxo-naphthalen-3-yl)carbonyl)glycine] |
| < 100 nM | O=C(O)CNC(=O)C1=C(O)c2cc(Cl)ccc2[C@]2(CCOC2)C1=O [Example 11, N-(((3S)-6′-Chloro-4′-hydroxy-2′-oxo-4,5-dihydro-spiro[furan-3,1′-naphthalen]-3′-yl)carbonyl)glycine] |
| < 100 nM | CC1(C)C(=O)C(C(=O)NCC(=O)O)=C(O)c2cccnc21 [Example 103, 2-(5-Hydroxy-8,8-dimethyl-7-oxo-7,8-dihydroquinoline-6-carboxamido)acetic acid] |
